Data: ChEMBL document CHEMBL1156400, “Cedronolactone E, a novel C(19) quassinoid from Simaba cedron” (J Nat Prod, 2001)
Converted amounts (≈) assume the structure as drawn.

Test system: P388
Assay: Cytotoxicity against mouse P388 cells
Type: functional, cell-based

For `C[C@@H]1[C@@H]2[C@@H](O)C(=O)O[C@@H]3C[C@@]4(C)C(=C(O[C@@]5(C)CC(=O)O[C@@H]45)[C@@H]1O)[C@]23CO` [CEDRONOLACTONE E], the IC50 was 51 µg/mL (≈ 134 µM).
